From patent publication US20100135905A1, “ASSESSMENT OF CANCER SUSCEPTIBILITY TO MOLECULAR TARGETED THERAPY BY USE OF RECOMBINANT PEPTIDES” (priority 2004, published 2010)

Legend:
LLC tumors = assay: In vivo panning of T7 phage peptide library: phage recovered from irradiated LLC tumors; parameters: species or system mice; conditions: for Phage Recovered from LLC tumors (Frequency) / Phage Recovered from LLC tumors: Experiment B; for Phage Recovered from LLC tumors: number of sequenced phage
Description: GL261 murine glioma cells and Lewis lung carcinoma (LLC) cells were implanted into the hind limb of C57BL/6 mice (see Hallahan et al., 1995b; Hallahan et al., 1998; Hallahan & Virudachalam, 1999).
(§1) For in vivo panning, tumors were irradiated with 3 Gy and approximately 10^10 phage (prepared as described in Example 1) were administered by tail vein injection into each of the tumor bearing mice at 4 hours following irradiation. Tumors were recovered at one hour following injection and amplified in BL21 bacteria. Amplified phage were pooled and re-administered to a tumor-bearing mouse following tumor irradiation. The phage pool was sequentially administered to a total of 6 animals. As a control, wild type phage lacking synthetic peptide inserts were identically administered to a second experimental group of animals.
To determine the titer of phage binding in a tumor or in normal tissue, recovered phage were amplified in BL21 bacteria. Bacteria were plated and the number of plaques present was counted. To determine the total phage output per organ, the number of plaque forming units (PFU) on each plate was divided by the volume of phage plated and the weight of each organ. Normal variation was observed as a 2-fold difference in PFU. In the present Example, background binding within tumor blood vessels was approximately 10^4 phage. Phage that bound to the vasculature within irradiated tumors show enrichment in the tumor relative to other organs and enrichment in the irradiated tumor relative to the control phage without DNA insert.
(§2) Following six rounds of in vivo panning, fifty recombinant phage peptides that bound within irradiated tumors were randomly selected for further analysis. The nucleic acid sequence encoding recombinant phage was amplified by PCR using primers set forth as SEQ ID NOs: 20-21 (available from Novagen Brand, a unit of EMD Biosciences, Inc., Madison, Wis.). An individual phage suspension was used as template. Amplified peptides were sequenced using an ABI PRISM® 377 sequencer (Applied Biosystems of Foster City, Calif., United States of America).

LLC and GL261 tumors = assay: Conserved motifs within phage peptides recovered by in vivo panning from both tumor models; parameters: species or system mice; conditions: for Frequency of Recovery of conserved sequence: share of phage peptides recovered from irradiated tumors that contain the sequence
Description: as §1, §2
The amino acid sequences of all phage that were recovered from both tumors were studied in order to identify homologous sequences (Table 2). The most commonly recovered phage peptide had amino acid sequence HVGGSSV (SEQ ID NO: 1), and the second most common sequence was […] (SEQ ID NO: 2). The probability of recovering these peptide sequences from both tumor subtypes is 625/10^14 for each of the peptide sequences. The peptide sequence GSSV (SEQ ID NO: 9) was present in 58% of the phage recovered from tumors. Homology between peptides recovered from LLC and GL261 included 100% homology in […] (SEQ ID NO: 2) and 70% homology in RGSGSRV (SEQ ID NO.: 12). Of interest is a 6 amino acid homology spanning over 8 amino acids that include amino acids SXRGXGS (SEQ ID NO: 13), which was recovered from 28% of all phage in 2 tumor models (p<0.0001). The probability of having six identical amino acids by chance is 6^−24.

## SKEK (Peptide that binds to LLC and/or GL261 tumors) [peptide isolated by in vivo panning of a phage library]
LLC tumors
  Phage Recovered from LLC tumors (Frequency): (7%)
  Phage Recovered from LLC tumors: 1

## GSRV (conserved subsequence) [conserved motif within peptides identified by in vivo panning]
LLC and GL261 tumors
  Frequency of Recovery of conserved sequence: 6%

## GSSV (conserved subsequence) [conserved motif within peptides identified by in vivo panning]
LLC and GL261 tumors; phage with peptide insert comprising the subsequence, no phage with wild type
  Phage recovered from irradiated tumors: 22-40 of 10^6 injected phage
LLC and GL261 tumors
  Frequency of Recovery of conserved sequence: 58%

## SVVRDGSEV (Peptide that binds to LLC and/or GL261 tumors) [peptide isolated by in vivo panning of a phage library]
LLC tumors
  Phage Recovered from LLC tumors (Frequency): (21%)
  Phage Recovered from LLC tumors: 3

## RGXGSXV [conserved motif in phage recovered from treated LLC tumors]
LLC tumors; treated LLC tumors
  Frequency of sequence in phage recovered from treated LLC tumors: 41%

## NSXR [N-terminal NSXR, conserved N-terminal motif, N encoded by the vector]
LLC and GL261 tumors
  Frequency of Recovery of conserved sequence: 39%

## NSV (conserved sequence) [N-terminal NSV, conserved N-terminal motif, N encoded by the vector]
LLC and GL261 tumors
  Frequency of Recovery of conserved sequence: 22%

## SGRKVGSGSSV (Peptide that binds to LLC and/or GL261 tumors) [peptide isolated by in vivo panning of a phage library]
LLC tumors
  Phage Recovered from LLC tumors (Frequency): (50%)
  Phage Recovered from LLC tumors: 7

## SRKQGGTEV (Peptide that binds to LLC and/or GL261 tumors) [peptide isolated by in vivo panning of a phage library]
LLC tumors
  Phage Recovered from LLC tumors (Frequency): (7%)
  Phage Recovered from LLC tumors: 1

## NXVG [N-terminal NXVG, conserved N-terminal motif, N encoded by the vector]
LLC and GL261 tumors
  Frequency of Recovery of conserved sequence: 34%

## GSXV [conserved motif within peptides identified by in vivo panning]
LLC and GL261 tumors
  Frequency of Recovery of conserved sequence: 80%

## SXRGXGS [conserved motif within peptides identified by in vivo panning]
LLC and GL261 tumors
  Frequency of Recovery of conserved sequence: 28%
